Reference: article PMC11594329, “Development of LAT1-Selective Nuclear Medicine Therapeutics Using Astatine-211” (International Journal of Molecular Sciences, 2024)

How the values were obtained:
LAT1-Tet/HEK293 cells = test: Uptake versus LAT1 expression level (Dox-induced) in LAT1-Tet/HEK293 cells; format: cell-based; conditions: collection 30 min after treatment
Protocol: Each cell line was seeded in 24 wells at 1 × 10^5 cells/mL and allowed to become sub-confluent on the day of the experiment. Cells were washed with PBS (-) (Fujifilm Wako Pure Chemical, Osaka, Japan) prior to the addition of the compound, which was then replaced with uptake buffer. After treating the cells with the same dose, they were collected at predetermined time points. The cell dose was measured using a γ-counter (Wizard^2 2480; PerkinElmer, Waltham, MA, USA), and the protein content of the sample was determined. Protein content was measured using the BCA method, and the dose was corrected using the protein content (Protein Assay BCA kit, Fujifilm Wako Pure Chemical).
Figure 2 Comparison of uptake between the labeled compounds. (A) Relation between uptake ratio and LAT1 expression level. Uptake ratios were compared between LAT1-Tet/HEK293 cells. The Y-axis represents the uptake ratio, and the X-axis is concentration of Doxycycline (Dox) (TaKaRa Bio, Shiga, Japan). The collection time was 30 min after treatment. The expression of LAT1 increased with increasing amounts of Dox. (B) Comparison of uptake in PANC-1 cell line. The collection times were 0.5, 1, 5 and 10 min after treatment.
The PANC-1 cell line was obtained from the RIKEN Cell Bank and maintained in RPMI 1640 medium (Fujifilm Wako Pure Chemical, Osaka, Japan) supplemented with 10% inactivated fetal bovine serum (Thermo Fisher Scientific, Waltham, MA, USA). Mock/HEK293, LAT1/HEK293, and LAT2/HEK203 cells were kindly provided by Dr. Kanai. Cell lines controlling LAT1 expression were constructed using the Tet-on system. HEK293 cells were obtained from the RIKEN Cell Bank and maintained in E-MEM (Fujifilm Wako Pure Chemical) supplemented with 10% inactivated fetal bovine serum (Thermo Fisher Scientific) and non-essential amino acids (Fujifilm Wako Pure Chemical). The expression vectors were purchased from VectorBuilder, Inc. (Kanagawa, Japan). The purified viral particle genes were transfected into HEK293 cells. Drug selection and cloning of the cell line (Tet-LAT1/HEK293) were performed. […]

PANC-1 tumor model = test: Tissue distribution in nude mice (PANC-1 tumor model); format: in vivo, BALB/c nu/nu mice; conditions: nude mice (PANC-1 tumor model)
Protocol: BALB/c nu/nu mice (male, 5 weeks old) were purchased from Japan SLC (Shizuoka, Japan) and subcutaneously transplanted at a density of 1 × 10^7 cells/mouse. PANC-1 cells that reached the logarithmic growth phase were transplanted subcutaneously by mixing a 1 × 10^8 cells/mL cell suspension with an equivalent volume of Matrigel (Corning, Corning, NY, USA) to obtain 1 × 10^7 cells per mouse. Experiments were performed after the size of the transplanted tumor had exceeded 50 mm^3. The doses in the distribution experiments were as follows: ^211At-AAMT-OH-L (0.501 ± 0.011 MBq/mouse, 19.91 ± 0.59 g, n = 3) and ^211At-AAMT-O-Me-L (0.384 ± 0.003 MBq/mouse, 19.18 ± 0.38 g, n = 6 for Table 3), ^211At-AAMT-O-Me-L (158.10 ± 2.94 kBq/mouse, 19.27 ± 0.64 g, n = 6) and ^211At-AAMT-O-Me-D (135.08 ± 2.35 kBq/mouse, 18.64 ± 0.97 g, n = 6), ^211At-AAMT-O-Et-L (0.682 ± 0.011 MBq/mouse, 20.25 ± 1.41 g, n = 6), ^211At-AAMT-O-Pr-L (0.927 ± 0.020 MBq/mouse, 21.74 ± 0.37 g, n = 6).

[1] = Tissue distribution in ICR mice (normal animals); format: in vivo
From the text: ICR mice (male, 5 weeks old) were purchased from Japan SLC (Shizuoka, Japan) and acclimated for one week prior to use. The doses in the distribution experiments were as follows: ^211At-AAMT-O-Me-L (0.407 ± 0.005 MBq/mouse, 31.64 ± 0.76 g, n = 6), ^211At-AAMT-O-Me-D (0.351 ± 0.004 MBq/mouse, 31.44 ± 0.94 g, n = 6), ^211At-AAMT-O-Et-L (0.685 ± 0.010 MBq/mouse, 24.14 ± 3.31 g, n = 6), ^211At-AAMT-O-Pr-L (1.09 ± 0.06 MBq/mouse, 26.33 ± 0.39 g, n = 6)

CCCOc1ccc(C[C@](C)(N)C(=O)O)cc1[211At] [^211At-AAMT-O-Pr-L]
Uptake ratio versus LAT1 expression (doxycycline concentration) (LAT1-Tet/HEK293 cells): lower cellular uptake when LAT1 expression increased | Tissue distribution, Bladder (PANC-1 tumor model; 10 min after injection): 18.24 ± 4.50 %ID/g | Tissue distribution, Blood (PANC-1 tumor model; 10 min after injection): 4.33 ± 0.45 %ID/g | Tissue distribution, Bone (PANC-1 tumor model; 10 min after injection): 3.50 ± 0.13 %ID/g | Tissue distribution, Brain (PANC-1 tumor model; 10 min after injection): 1.01 ± 0.04 %ID/g | Tissue distribution, Cecum (PANC-1 tumor model; 10 min after injection): 3.35 ± 0.30 %ID/g | Tissue distribution, Colon (PANC-1 tumor model; 10 min after injection): 4.56 ± 0.31 %ID/g | Tissue distribution, Heart (PANC-1 tumor model; 10 min after injection): 9.66 ± 0.87 %ID/g | Tissue distribution, Kidney (PANC-1 tumor model; 10 min after injection): 10.29 ± 0.97 %ID/g | Tissue distribution, Liver (PANC-1 tumor model; 10 min after injection): 3.67 ± 0.41 %ID/g | Tissue distribution, Lung (PANC-1 tumor model; 10 min after injection): 18.16 ± 1.88 %ID/g | Tissue distribution, Pancreas (PANC-1 tumor model; 10 min after injection): 10.85 ± 1.53 %ID/g | Tissue distribution, Salivary glands (PANC-1 tumor model; 10 min after injection): 11.89 ± 0.06 %ID/g | Tissue distribution, Small intestine (PANC-1 tumor model; 10 min after injection): 6.80 ± 0.63 %ID/g | Tissue distribution, Spleen (PANC-1 tumor model; 10 min after injection): 11.84 ± 1.91 %ID/g | Tissue distribution, Stomach (PANC-1 tumor model; 10 min after injection): 7.31 ± 0.30 %ID/g | Tissue distribution, Testis (PANC-1 tumor model; 10 min after injection): 3.54 ± 0.28 %ID/g | Tissue distribution, Thyroid (PANC-1 tumor model; 10 min after injection): 9.74 ± 0.39 %ID/g | Tissue distribution, Tumor (PANC-1 tumor model; 10 min after injection): 5.91 ± 0.27 %ID/g | Tissue distribution, Bladder (PANC-1 tumor model; 1 h after injection): 18.00 ± 0.97 %ID/g | Tissue distribution, Blood (PANC-1 tumor model; 1 h after injection): 3.09 ± 0.25 %ID/g | Tissue distribution, Bone (PANC-1 tumor model; 1 h after injection): 2.03 ± 0.45 %ID/g | Tissue distribution, Brain (PANC-1 tumor model; 1 h after injection): 0.79 ± 0.13 %ID/g | Tissue distribution, Cecum (PANC-1 tumor model; 1 h after injection): 3.07 ± 1.06 %ID/g | Tissue distribution, Colon (PANC-1 tumor model; 1 h after injection): 3.27 ± 0.46 %ID/g | Tissue distribution, Heart (PANC-1 tumor model; 1 h after injection): 5.39 ± 1.06 %ID/g | Tissue distribution, Kidney (PANC-1 tumor model; 1 h after injection): 5.76 ± 0.67 %ID/g | Tissue distribution, Liver (PANC-1 tumor model; 1 h after injection): 2.41 ± 0.24 %ID/g | Tissue distribution, Lung (PANC-1 tumor model; 1 h after injection): 14.15 ± 1.78 %ID/g | Tissue distribution, Pancreas (PANC-1 tumor model; 1 h after injection): 3.54 ± 0.49 %ID/g | Tissue distribution, Salivary glands (PANC-1 tumor model; 1 h after injection): 20.98 ± 3.26 %ID/g | Tissue distribution, Small intestine (PANC-1 tumor model; 1 h after injection): 5.08 ± 0.53 %ID/g | Tissue distribution, Spleen (PANC-1 tumor model; 1 h after injection): 17.42 ± 6.48 %ID/g | Tissue distribution, Testis (PANC-1 tumor model; 1 h after injection): 3.56 ± 0.41 %ID/g | Tissue distribution, Thyroid (PANC-1 tumor model; 1 h after injection): 16.44 ± 1.16 %ID/g | Tissue distribution, Tumor (PANC-1 tumor model; 1 h after injection): 9.45 ± 0.82 %ID/g | Tissue distribution, Bladder ([1]; 1 h after injection): 20.82 ± 5.36 %ID/g | Tissue distribution, Blood ([1]; 1 h after injection): 1.77 ± 0.15 %ID/g | Tissue distribution, Bone ([1]; 1 h after injection): 1.79 ± 0.12 %ID/g | Tissue distribution, Brain ([1]; 1 h after injection): 0.25 ± 0.02 %ID/g | Tissue distribution, Cecum ([1]; 1 h after injection): 1.49 ± 0.14 %ID/g | Tissue distribution, Colon ([1]; 1 h after injection): 1.35 ± 0.07 %ID/g | Tissue distribution, Heart ([1]; 1 h after injection): 3.14 ± 0.20 %ID/g | Tissue distribution, Kidney ([1]; 1 h after injection): 2.25 ± 0.19 %ID/g | Tissue distribution, Liver ([1]; 1 h after injection): 1.18 ± 0.08 %ID/g | Tissue distribution, Lung ([1]; 1 h after injection): 6.54 ± 0.34 %ID/g | Tissue distribution, Pancreas ([1]; 1 h after injection): 2.55 ± 0.60 %ID/g | Tissue distribution, Salivary glands ([1]; 1 h after injection): 14.23 ± 3.16 %ID/g | Tissue distribution, Small intestine ([1]; 1 h after injection): 1.83 ± 0.23 %ID/g | Tissue distribution, Spleen ([1]; 1 h after injection): 4.11 ± 0.11 %ID/g | Tissue distribution, Stomach ([1]; 1 h after injection): 13.55 ± 2.66 %ID/g | Tissue distribution, Testis ([1]; 1 h after injection): 3.66 ± 0.14 %ID/g | Tissue distribution, Thymus ([1]; 1 h after injection): 2.03 ± 0.28 %ID/g | Tissue distribution, Thyroid ([1]; 1 h after injection): 23.08 ± 3.56 %ID/g | Tissue distribution, Bladder ([1]; 3 h after injection): 5.37 ± 0.73 %ID/g | Tissue distribution, Blood ([1]; 3 h after injection): 1.30 ± 0.12 %ID/g | Tissue distribution, Bone ([1]; 3 h after injection): 1.32 ± 0.12 %ID/g | Tissue distribution, Brain ([1]; 3 h after injection): 0.16 ± 0.01 %ID/g | Tissue distribution, Cecum ([1]; 3 h after injection): 1.13 ± 0.25 %ID/g | Tissue distribution, Colon ([1]; 3 h after injection): 1.29 ± 0.25 %ID/g | Tissue distribution, Heart ([1]; 3 h after injection): 2.16 ± 0.18 %ID/g | Tissue distribution, Kidney ([1]; 3 h after injection): 1.93 ± 0.29 %ID/g | Tissue distribution, Liver ([1]; 3 h after injection): 0.82 ± 0.14 %ID/g | Tissue distribution, Lung ([1]; 3 h after injection): 5.09 ± 0.43 %ID/g | Tissue distribution, Pancreas ([1]; 3 h after injection): 1.60 ± 0.31 %ID/g | Tissue distribution, Salivary glands ([1]; 3 h after injection): 11.39 ± 0.33 %ID/g | Tissue distribution, Small intestine ([1]; 3 h after injection): 1.92 ± 0.12 %ID/g | Tissue distribution, Spleen ([1]; 3 h after injection): 3.56 ± 0.54 %ID/g | Tissue distribution, Stomach ([1]; 3 h after injection): 32.05 ± 3.31 %ID/g | Tissue distribution, Testis ([1]; 3 h after injection): 2.34 ± 0.42 %ID/g | Tissue distribution, Thymus ([1]; 3 h after injection): 1.76 ± 0.25 %ID/g | Tissue distribution, Thyroid ([1]; 3 h after injection): 24.75 ± 3.77 %ID/g
